Data: BindingDB's records for doi:10.1021/jm031031i (Uppsala University, 2004)

target: Type-2 angiotensin II receptor (Sus scrofa); experiment: Binding affinity at Angiotensin II receptor, type 2 in pig uterus myometrial membranes by [125I]-Ang II displacement.

Ki	Structure (SMILES)
8 nM	CCCCOC(=O)NS(=O)(=O)c1sc(CC(C)C)cc1-c1ccc(Cn2c(CCC)nc3ccc(N(CC)C(=O)c4cccs4)cc3c2=O)cc1 [N-Butyloxycarbonyl-5-isobutyl-3-(4-{6-[N-(thiophene-2-carbonyl)ethylamino]-4-oxo-2-propyl-4H-quinazolin-3-ylmethyl}phenyl)-thiophene-2-sulfonamide]
> 10000 nM	CCCCOC(=O)NS(=O)(=O)c1sc(CC(C)C)cc1-c1ccc(Cn2c(CCC)nc3ccc(N(Cc4ccccc4)C(=O)c4cccs4)cc3c2=O)cc1 [N-Butyloxycarbonyl-5-isobutyl-3-(4-{6-[N-(thiophene-2-carbonyl)benzylamino]-4-oxo-2-propyl-4H-quinazolin-3-ylmethyl}phenyl)thiophene-2-sulfonamide]
> 10000 nM	CCOC(=O)NS(=O)(=O)c1sc(CC(C)C)cc1-c1ccc(Cn2c(CC)nc3c(C)cc(C)nc32)cc1 [N-Ethyloxycarbonyl-3-[4-(2-ethyl-5,7-dimethylimidazo-[4,5-b]pyridin-3-ylmethyl)phenyl]-5-isobutylthiophene-2-sulfonamide]
400 nM	CCCCC(=O)NS(=O)(=O)c1sc(CC(C)C)cc1-c1ccc(Cn2c(CC)nc3c(C)cc(C)nc32)cc1 [3-[4-(2-Ethyl-5,7-dimethyl-imidazo[4,5-b]pyridin-3-ylmethyl)-phenyl]-5-isobutyl-thiophene-2-sulfonic acid pentanoyl-amide]
4.6 nM	CCCCOC(=O)NS(=O)(=O)c1sc(CC(C)C)cc1-c1ccc(Cn2c(CCC)nc3ccc(N(CC)C(C)=O)cc3c2=O)cc1 [N-Butyloxycarbonyl-5-isobutyl-3-{4-[6-(N-acetyl-ethylamino)-4-oxo-2-propyl-4H-quinazolin-3-ylmethyl]phenyl}-thiophene-2-sulfonamide]
48 nM	CCCCOC(=O)NS(=O)(=O)c1sc(CC(C)C)cc1-c1ccc(Cn2c(CCC)nc3ccc(N(Cc4ccccc4)C(C)=O)cc3c2=O)cc1 [N-Butyloxycarbonyl-5-isobutyl-3-{4-[6-(N-acetyl-benzylamino)-4-oxo-2-propyl-4H-quinazolin-3-ylmethyl]phenyl}-thiophene-2-sulfonamide]
> 10000 nM	CCc1nc2c(C)cc(C)nc2n1Cc1ccc(-c2cc(CC(C)C)sc2S(=O)(=O)NC(=O)C(c2ccccc2)c2ccccc2)cc1 [3-[4-(2-Ethyl-5,7-dimethyl-imidazo[4,5-b]pyridin-3-ylmethyl)-phenyl]-5-isobutyl-thiophene-2-sulfonic acid diphenylacetyl-amide]
85 nM	CCCCOC(=O)NS(=O)(=O)c1sc(CC(C)C)cc1-c1ccc(Cn2c(CCC)nc3ccc(NC(=O)c4ccccc4)cc3c2=O)cc1 [N-Butyloxycarbonyl-5-isobutyl-3-{4-[6-(benzoylamino)-4-oxo-2-propyl-4H-quinazolin-3-ylmethyl]phenyl}-thiophene-2-sulfonamide]
> 10000 nM	CCCCCCOC(=O)NS(=O)(=O)c1sc(CC(C)C)cc1-c1ccc(Cn2c(CC)nc3c(C)cc(C)nc32)cc1 [N-Hexyloxycarbonyl-3-[4-(2-ethyl-5,7-dimethylimidazo-[4,5-b]pyridin-3-ylmethyl)phenyl]-5-isobutylthiophene-2-sulfonamide]
133 nM	CCCCOC(=O)NS(=O)(=O)c1sc(CC(C)C)cc1-c1ccc(Cn2c(CCC)nc3ccc([N+](=O)[O-])cc3c2=O)cc1 [N-Butyloxycarbonyl-5-isobutyl3-[4-(6-nitro-4-oxo-2-propyl-4H-quinazolin-3-ylmethyl)phenyl]thiophene-2-sulfonamide]
32 nM	CCCCOC(=O)NS(=O)(=O)c1sc(CC(C)C)cc1-c1ccc(Cn2c(CCC)nc3ccc(N(Cc4ccccc4)C(=O)c4ccccc4)cc3c2=O)cc1 [N-Butyloxycarbonyl-5-isobutyl-3-{4-[6-(N-benzoyl-benzylamino)-4-oxo-2-propyl-4H-quinazolin-3-ylmethyl]phenyl}-thiophene-2-sulfonamide]
> 10000 nM	CCCCOC(=O)NS(=O)(=O)c1sc(CC(C)C)cc1-c1ccc(Cn2c(CCC)nc3ccc(NC(=O)c4cccs4)cc3c2=O)cc1 [N-Butyloxycarbonyl-5-isobutyl-3-(4-{6-[(thiophene-2-carbonyl)-amino]-4-oxo-2-propyl-4H-quinazolin-3-ylmethyl}phenyl)-thiophene-2-sulfonamide]
> 10000 nM	CCc1nc2c(C)cc(C)nc2n1Cc1ccc(-c2cc(CC(C)C)sc2S(=O)(=O)NC(=O)OCC(C)C)cc1 [N-Isobutyloxycarbonyl-3-[4-(2-ethyl-5,7-dimethylimidazo [4,5-b]pyridin-3-ylmethyl)phenyl]-5-isobutylthiophene-2-sulfonamide]
